Measurements taken from patent US7867979B2, “Drug composition for treating 2 type diabetes and diabetic chronicity complications” (Hainan Deze Drug Research Co., Ltd., priority 2006, dated 2011).

Assays:
Assay type in all cases: in vivo, Goto-Kakizaki rats (GK)
[1] = tested on: Superoxidedismutase (SOD); assay: Superoxidedismutase (SOD) in kidney tissue homogenate of GK rats; settings: different ratio experiment, oral daily 12 weeks, total 20 mg/kg per Table 3
Method: GK rats control group (n=10); mangiferin groups (10, 30, 200 mg/kg, each group 10 rats); berberine groups (10, 20, 150 mg/kg, each group 10 rats); composition group 1[[mangiferin (10 mg/kg)+berberine (10 mg/kg)], 10 rats]; composition group 2[[mangiferin (200 mg/kg)+berberine (150 mg/kg)], 10 rats]. Wistar rats are normal control group (10 rats). GK rats control group and Wistar rats group were given saline. The other groups were given test drugs. Test samples were administrated orally at the same time every day for 12 weeks. 3.3.1 Preparation of tissue homogenate: Rats were killed by femoral artery bloodletting after administration of the rats for 12-weeks. Kidney tissue of the rats were taken, the blood of kidney tissue were washed with cooling saline (4° C.), then the remnant water was absorbed with filter paper, the kidney tissue was weighed. Per gram kidney tissue was added into 10 ml saline, which was put in homogenized machine (10,000 r/min, 10 seconds, 3rd), 10% tissue homogenate was prepared, the tissue homogenate was centrifuged (4000 r/min) for 10 minutes to get supernatant, the supernatant was saved in −20° C. for determination. […] SOD is determined by Xanthine Oxidase calorimetric analysis, the test box was bought from Nanjing Jiancheng Bioengineering Research Institute. […] The results have been calculated as mean±SD ( x±SD) and the comparisons of the data have been done by t-test. There are ten rats in every group. GK rats control group and wistar rats group were given saline. The other groups were given test drugs. Test samples were administrated orally at the same time every day for 12 weeks. The measurements are as same as the above experiment.

[2] = tested on: Propyl dialdehyde (MDA); assay: Propyl dialdehyde (MDA) in kidney tissue homogenate of GK rats; settings: different ratio experiment, oral daily 12 weeks, total 20 mg/kg per Table 3
Method: GK rats control group (n=10); mangiferin groups (10, 30, 200 mg/kg, each group 10 rats); berberine groups (10, 20, 150 mg/kg, each group 10 rats); composition group 1[[mangiferin (10 mg/kg)+berberine (10 mg/kg)], 10 rats]; composition group 2[[mangiferin (200 mg/kg)+berberine (150 mg/kg)], 10 rats]. Wistar rats are normal control group (10 rats). GK rats control group and Wistar rats group were given saline. The other groups were given test drugs. Test samples were administrated orally at the same time every day for 12 weeks. 3.3.1 Preparation of tissue homogenate: Rats were killed by femoral artery bloodletting after administration of the rats for 12-weeks. Kidney tissue of the rats were taken, the blood of kidney tissue were washed with cooling saline (4° C.), then the remnant water was absorbed with filter paper, the kidney tissue was weighed. Per gram kidney tissue was added into 10 ml saline, which was put in homogenized machine (10,000 r/min, 10 seconds, 3rd), 10% tissue homogenate was prepared, the tissue homogenate was centrifuged (4000 r/min) for 10 minutes to get supernatant, the supernatant was saved in −20° C. for determination. 3.3.2.2 Propyl dialdehyde (MDA): MDA is determined by TBA, the test box was bought from Nanjing Jiancheng Bioengineering Research Institute. […] The results have been calculated as mean±SD ( x±SD) and the comparisons of the data have been done by t-test. There are ten rats in every group. GK rats control group and wistar rats group were given saline. The other groups were given test drugs. Test samples were administrated orally at the same time every day for 12 weeks. The measurements are as same as the above experiment.

[3] = target: T1, aldose reductase (AR) (Rattus norvegicus, UniProt P07943); assay: Activity of aldose reductase (AR) of lens in GK rats; settings: different ratio experiment, oral daily 12 weeks, specific activity, in U/mg protein; for AR activity of lens NADH (0.1 mmol/L): total 20 mg/kg per Table 3, NADH 0.1 mmol/L system; for AR activity of lens NADPH (0.1 mmol/L): total 20 mg/kg per Table 3, NADPH 0.1 mmol/L system
T1 construct: from tissue; host or cells: lens of GK (Goto-Kakizaki) and Wistar rats
Method: GK rats control group (n=10); mangiferin groups (10, 30, 200 mg/kg, each group 10 rats); berberine groups (10, 20, 150 mg/kg, each group 10 rats); composition group 1[[mangiferin (10 mg/kg)+berberine (10 mg/kg)], 10 rats]; composition group 2[[mangiferin (200 mg/kg)+berberine (150 mg/kg)], 10 rats]. Wistar rats are normal control group (10 rats). GK rats control group and Wistar rats group were given saline. The other groups were given test drugs. Test samples were administrated orally at the same time every day for 12 weeks. […] At the End of the experiment, the left side lens of rats was taken, then these lenses were added into glycerol and put into refrigerator (−80° C.□) to preserve to determine AR activity. The determination method of AR activity refer to Maragoudakis's method and change slightly, that is: the activity of enzyme is indicated by the record of the absorbance of NADPH in 340 nm decline IOU. […] The second reaction system is 0.1 mmol/L NADH instead of NADPH, the rest of the reagent is same as one of the first response system. The activity of enzyme and the protein content in tissue homogenate are determined at the same time. a unit enzyme activity is indicated by the quantity of the enzyme that produce 1 μmol NADP^+ (or NDA^+) in one minute. […] The results have been calculated as mean±SD ( x±SD) and the comparisons of the data have been done by t-test. There are ten rats in every group. GK rats control group and wistar rats group were given saline. The other groups were given test drugs. Test samples were administrated orally at the same time every day for 12 weeks. The measurements are as same as the above experiment.

[4] = tested on: diabetic GK rats; assay: Blood glucose and lipid in GK rats; settings: different ratio experiment; GK rats, high fat diet, oral daily 12 weeks, total 20 mg/kg per Table 3
Text: The GK (Goto-Kakizaki) rat is the spontaneous model of diabetes, the pathogenesis of GK rat is very similar to the pathogenesis of type 2 diabetes. After diabetes attack, hyperglycemia and insulin secretion weakened emerge rapidly, the latter diseases may be complicated by retinopathy, micro-vascular disease, neuropathy, nephropathy in GK rat. The GK rats have been widely used in type 2 diabetes study, so we choose GK rat as the animal model of the following experiment. […] Then they can be mixed or diluted in accordance with the dose and the ratio. 1.3 Goto-Kakizaki rats (GK) (4 months age, ♀♂) and Wistar rats (SPF level, ♀♂) were purchased from Shanghai SLAC laboratory animal Co., Ltd. In addition to the normal rats, the other rats were fed with high fat diet (20% protein and 3.5% cholesterol). After the rats was feeding adaptation for one week, The GK rats which the blood glucose level was more than 11.1 mmol/L were selected, and then divided into the following groups random: GK rats control group (n=10); mangiferin groups (10, 30, 200 mg/kg, each group 10 rats); berberine groups (10, 20, 150 mg/kg, each group 10 rats); composition group 1[[mangiferin (10 mg/kg)+berberine (10 mg/kg)], 10 rats]; composition group 2[[mangiferin (200 mg/kg)+berberine (150 mg/kg)], 10 rats]. Wistar rats are normal control group (10 rats). GK rats control group and Wistar rats group were given saline. The other groups were given test drugs. Test samples were administrated orally at the same time every day for 12 weeks. 3.1 Blood Glucose and lipid: The blood specimens were taken at the end of the test. Plasma glucose (GLU), triglycerides (TG), total cholesterol (TC) were determined by HITACHI7080 automatic biochemistry analyzer. […] The results have been calculated as mean±SD ( x±SD) and the comparisons of the data have been done by t-test. […] Mangiferin and berberine are prepared in accordance with the method of preparation of example 1 and 2. Then they can be mixed in accordance with the dose and the ratio such as table 3. 1.2 Animal: Goto-Kakizaki rats (GK) (4 months age, ♀♂) and Wistar rats (SPF level, ♀♂) were purchased from Shanghai SLAC laboratory animal Co., Ltd. In addition to the normal rats, the other rats were fed with high fat diet (20% protein and 3.5% cholesterol). After the rats was feeding adaptation for one week, GK rats that the blood glucose level of the GK rats was more than 11.1 mmol/L were selected, and then random divided into the following groups as follows (Table 3): There are ten rats in every group. GK rats control group and wistar rats group were given saline. The other groups were given test drugs. Test samples were administrated orally at the same time every day for 12 weeks. The measurements are as same as the above experiment.

With `O=c1c2cc(O)c(O)cc2oc2cc(O)c(C3OC(CO)C(O)C(O)C3O)c(O)c12` (centres unmarked) [Composition A] the “Measurements about oxidation SOD” value [1] was 168.26 ± 13.50 U/mg pro, the “Measurements about oxidation MDA” value [2] was 3.43 ± 0.89 nmol/mg pro and the “AR activity of lens NADH (0.1 mmol/L)” value [3] was 1.97 ± 0.46. For the same compound, the “AR activity of lens NADPH (0.1 mmol/L)” value [3] was 3.11 ± 0.56, the GLU [4] was 14.11 ± 2.03 mmol/L and the “Lipid TC” value [4] was 3.26 ± 0.26 mmol/L. The “Lipid TG” value [4] was 2.79 ± 0.30 mmol/L.
With `COc1ccc2cc3[n+](cc2c1OC)CCc1cc2c(cc1-3)OCO2` [Composition H] the “Measurements about oxidation SOD” value [1] was 171.10 ± 13.81 U/mg pro, the “Measurements about oxidation MDA” value [2] was 3.52 ± 0.77 nmol/mg pro and the “AR activity of lens NADH (0.1 mmol/L)” value [3] was 1.39 ± 0.53. For the same compound, the “AR activity of lens NADPH (0.1 mmol/L)” value [3] was 2.48 ± 0.58, the GLU [4] was 12.34 ± 2.09 mmol/L and the “Lipid TC” value [4] was 3.33 ± 0.26 mmol/L. The “Lipid TG” value [4] was 2.91 ± 0.09 mmol/L.
